In patent US10556943B2, “HLA-DR binding peptides and their uses” (priority 2007, dated 2020):
pIC50: −log10 of the molar value. Read-outs that look alike come from different tables or passages of the source. One block for each compound: values may come before it.

Tests used:
purified HLA DRB1*0101 = target: T1, purified HLA DRB1*0101 (Homo sapiens, UniProt P01903+P01911, A100R/D57E/F55L/F60I/F76Y/I96L/L162R/M171V/P40L/Q125E/R42F/V115G/Y59C); test: HLA-DR radioligand binding inhibition assay, DRB1*0101; conditions: read-out: IC50 to purified HLA DRB1*0101
T1 construct: MHC molecules utilized were purified from EBV transformed homozygous cell lines or single MHC allele transfected 721.221, C1R, or fibroblast lines; made in house; host or cells: EBV transformed homozygous cell lines or single MHC allele transfected 721.221, C1R, or fibroblast lines
Procedure: (§1) Fifteen distinct HLA-DR molecules were used in quantitative assays to measure the binding of peptides to solubilized HLA-DR molecules. […] Briefly, columns of inactivated Sepharose CL4B and Protein A Sepharose were used as pre-columns. HLA-DR molecules were captured by passage of lysates over LB3.1 monoclonal antibody (anti-HLA-DRA) columns. Antibody columns were washed with 10 mM Tris-HCL, pH8.0 with 1% (v/v) NP-40, followed by PBS containing 0.4% (w/v) n-octylglucoside.
(§2) Briefly, 1-10 nM of radiolabeled peptide was co-incubated for 2 days at either room temperature or 37° C. with 1 μM to 1 nM purified HLA-DR molecules in the presence of a cocktail of protease inhibitors. Assays were performed at various pH conditions, ranging from pH 4 to pH 7. […] After incubation, the percentage of HLA-DR-bound radioactivity is determined by capturing HLA-DR/peptide complexes on Optiplates (Packard Instruments, Meriden, Conn.) coated with the LB3.1 antibody and determining bound counts per minute using the TopCount microscintillation counter (Packard Instruments).

purified HLA DRB1*0404 = target: T2, purified HLA DRB1*0404 (Homo sapiens, UniProt P01903+P01911, A100R/A169T/F76Y/I96L/K127E/L162R/M171V/N62H/P40V/Q125Y/R42H/S133A/S149N/S66Y/V209L/W38E); test: HLA-DR radioligand binding inhibition assay, DRB1*0404
T2 construct: MHC molecules utilized were purified from EBV transformed homozygous cell lines or single MHC allele transfected 721.221, C1R, or fibroblast lines; made in house; host or cells: EBV transformed homozygous cell lines or single MHC allele transfected 721.221, C1R, or fibroblast lines
Procedure: as §1, with “n-octylglucoside. […] The pH was reduced to 8.0 and the eluates were concentrated by centrifugation in Centriprep 30 concentrators at 2000 rpm (Amicon, Beverly, Mass.).” for “n-octylglucoside.”
as §2, with “Instruments). […] Competitor peptides are tested in 2-4 complete, independent experiments, at concentrations ranging from 30 μg/mL to 300 pg/mL.” for “Instruments).”

purified HLA DRB1*0401 = target: T3, purified HLA DRB1*0401 (Homo sapiens, UniProt P01903+P01911, A100K/A169T/F76Y/I96L/K127E/L162R/M171V/N62H/P40V/Q125Y/R42H/S133A/S149N/S66Y/V115G/V209L/W38E); test: HLA-DR radioligand binding inhibition assay, DRB1*0401
T3 construct: MHC molecules utilized were purified from EBV transformed homozygous cell lines or single MHC allele transfected 721.221, C1R, or fibroblast lines; made in house; host or cells: EBV transformed homozygous cell lines or single MHC allele transfected 721.221, C1R, or fibroblast lines
Procedure: as §1, with “n-octylglucoside. […] The pH was reduced to 8.0 and the eluates were concentrated by centrifugation in Centriprep 30 concentrators at 2000 rpm (Amicon, Beverly, Mass.).” for “n-octylglucoside.”
as §2, with “Instruments). […] Competitor peptides are tested in 2-4 complete, independent experiments, at concentrations ranging from 30 μg/mL to 300 pg/mL.” for “Instruments).”

purified HLA DRB1*0405 = target: T4, purified HLA DRB1*0405 (Homo sapiens, UniProt P01903+P01911, A100R/A169T/D86S/F76Y/I96L/K127E/L162R/M171V/N62H/P40V/Q125Y/R42H/S133A/S149N/S66Y/V115G/V209L/W38E); test: HLA-DR radioligand binding inhibition assay, DRB1*0405
T4 construct: MHC molecules utilized were purified from EBV transformed homozygous cell lines or single MHC allele transfected 721.221, C1R, or fibroblast lines; made in house; host or cells: EBV transformed homozygous cell lines or single MHC allele transfected 721.221, C1R, or fibroblast lines
Procedure: as §1, with “n-octylglucoside. […] The pH was reduced to 8.0 and the eluates were concentrated by centrifugation in Centriprep 30 concentrators at 2000 rpm (Amicon, Beverly, Mass.).” for “n-octylglucoside.”
as §2, with “Instruments). […] Competitor peptides are tested in 2-4 complete, independent experiments, at concentrations ranging from 30 μg/mL to 300 pg/mL.” for “Instruments).”

purified HLA DRB4*0101 = target: T5, purified HLA DRB4*0101 (Homo sapiens, UniProt P01903+P13762, G164S); test: HLA-DR radioligand binding inhibition assay, DRB4*0101
T5 construct: MHC molecules utilized were purified from EBV transformed homozygous cell lines or single MHC allele transfected 721.221, C1R, or fibroblast lines; made in house; host or cells: EBV transformed homozygous cell lines or single MHC allele transfected 721.221, C1R, or fibroblast lines
Procedure: as §1, with “n-octylglucoside. […] The pH was reduced to 8.0 and the eluates were concentrated by centrifugation in Centriprep 30 concentrators at 2000 rpm (Amicon, Beverly, Mass.).” for “n-octylglucoside.”
as §2, with “Instruments). […] Competitor peptides are tested in 2-4 complete, independent experiments, at concentrations ranging from 30 μg/mL to 300 pg/mL.” for “Instruments).”

purified HLA DRB1*1101 = target: T6, purified HLA DRB1*1101 (Homo sapiens, UniProt P01903+P01911, A100R/A169T/A87E/I96F/K41T/L162R/M171V/P40S/Q125H/Q178H/Q39Y/Q99D/R42S/S66Y/T262R/V115G/W38E); test: HLA-DR radioligand binding inhibition assay, DRB1*1101
T6 construct: MHC molecules utilized were purified from EBV transformed homozygous cell lines or single MHC allele transfected 721.221, C1R, or fibroblast lines; made in house; host or cells: EBV transformed homozygous cell lines or single MHC allele transfected 721.221, C1R, or fibroblast lines
T6 sequence (P01903 26-254, other chains not shown): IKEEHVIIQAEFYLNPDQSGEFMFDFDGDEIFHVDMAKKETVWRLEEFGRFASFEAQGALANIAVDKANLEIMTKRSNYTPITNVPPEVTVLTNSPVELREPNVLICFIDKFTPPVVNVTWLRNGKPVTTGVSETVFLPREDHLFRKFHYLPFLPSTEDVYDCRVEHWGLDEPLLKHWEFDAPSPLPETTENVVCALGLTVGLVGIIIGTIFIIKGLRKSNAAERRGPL
Procedure: as §1, with “n-octylglucoside. […] The pH was reduced to 8.0 and the eluates were concentrated by centrifugation in Centriprep 30 concentrators at 2000 rpm (Amicon, Beverly, Mass.).” for “n-octylglucoside.”
as §2, with “Instruments). […] Competitor peptides are tested in 2-4 complete, independent experiments, at concentrations ranging from 30 μg/mL to 300 pg/mL.” for “Instruments).”

SMILES: CC[C@H](C)[C@H](N)C(=O)N[C@@H](CS)C(=O)N[C@H](C(=O)N[C@H](C(=O)N[C@@H](CC(=O)O)C(=O)N[C@H](C(=O)N[C@@H](Cc1ccc(O)cc1)C(=O)N[C@@H](CCSC)C(=O)N[C@H](C(=O)N[C@@H](CCSC)C(=O)N[C@H](C(=O)N[C@@H](CCCCN)C(=O)N[C@@H](CS)C(=O)N[C@@H](Cc1c[nH]c2ccccc12)C(=O)N[C@@H](CCSC)C(=O)O)C(C)C)[C@@H](C)CC)C(C)C)[C@@H](C)CC)[C@@H](C)O [Peptide 1622.04]
- pIC50 (purified HLA DRB1*0101): < 4.70
- pIC50 (purified HLA DRB1*0404; read-out: IC50 to purified HLA DRB1*0404, purified HLA DRB1*0404): < 4.70

SMILES: CC(C)C[C@H](NC(=O)[C@@H](NC(=O)[C@H](CS)NC(=O)[C@H](CO)NC(=O)CNC(=O)[C@@H](NC(=O)[C@H](CC(=O)O)NC(=O)[C@@H](NC(=O)[C@@H](N)CO)[C@@H](C)O)C(C)C)[C@@H](C)O)C(=O)N[C@H](C(=O)N[C@@H](CS)C(=O)N1CCC[C@H]1C(=O)N[C@@H](CC(C)C)C(=O)N[C@@H](Cc1c[nH]cn1)C(=O)N[C@@H](CC(N)=O)C(=O)O)C(C)C [Peptide 9019.0043]
- pIC50 (purified HLA DRB1*0401; read-out: IC50 to purified HLA DRB1*0401, purified HLA DRB1*0401): < 4.70

SMILES: CC(C)C[C@H](NC(=O)[C@H](CC(=O)O)NC(=O)[C@H](CCCNC(=N)N)NC(=O)[C@@H](N)Cc1c[nH]cn1)C(=O)N[C@@H](C)C(=O)N[C@@H](C)C(=O)N[C@@H](CCCNC(=N)N)C(=O)N[C@@H](CC(N)=O)C(=O)N[C@H](C(=O)N[C@@H](CC(C)C)C(=O)N[C@H](C(=O)N[C@@H](CCCCN)C(=O)N[C@@H](CO)C(=O)N1CCC[C@H]1C(=O)N[C@@H](CC(N)=O)C(=O)O)C(C)C)C(C)C [Peptide 9019.0085]
- pIC50 (purified HLA DRB1*0405): 4.95

SMILES: CC[C@H](C)[C@H](NC(=O)CNC(=O)[C@H](CC(=O)O)NC(=O)[C@H](Cc1ccc(O)cc1)NC(=O)[C@@H]1CCCN1C(=O)[C@H](CCCCN)NC(=O)[C@H](C)N)C(=O)N1CCC[C@H]1C(=O)N[C@@H](C)C(=O)N[C@@H](CCCNC(=N)N)C(=O)N[C@@H](CCC(=O)O)C(=O)N[C@H](C(=O)N1CCC[C@H]1C(=O)N[C@@H](CC(=O)O)C(=O)N[C@@H](CC(C)C)C(=O)O)[C@@H](C)CC [Peptide 9019.0092]
- pIC50 (purified HLA DRB1*1101): < 4.70
- pIC50 (purified HLA DRB4*0101): < 4.70
- pIC50 (purified HLA DRB1*0401): < 4.70
- pIC50 (purified HLA DRB1*0404): < 4.70

Now from value to compound:

- pIC50 (purified HLA DRB1*0405): < 4.70
SMILES: CC[C@H](C)[C@H](NC(=O)[C@H](CCCCN)NC(=O)[C@H](CCC(N)=O)NC(=O)[C@@H](N)CCC(N)=O)C(=O)N[C@@H](CCCNC(=N)N)C(=O)N[C@@H](CCCCN)C(=O)N[C@@H](Cc1ccc(O)cc1)C(=O)N[C@H](C(=O)N[C@@H](CCSC)C(=O)N[C@@H](CCCNC(=N)N)C(=O)N[C@@H](CCCNC(=N)N)C(=O)N[C@@H](CC(C)C)C(=O)N[C@@H](CC(C)C)C(=O)N[C@@H](CCC(N)=O)C(=O)N[C@@H](CCC(=O)O)C(=O)O)[C@@H](C)O [Peptide 9019.0070]

- pIC50 (purified HLA DRB4*0101): < 4.70
SMILES: CSCC[C@H](NC(=O)[C@H](CC(C)C)NC(=O)[C@H](CCC(=O)O)NC(=O)[C@H](Cc1c[nH]c2ccccc12)NC(=O)[C@@H](NC(=O)[C@@H](NC(=O)[C@@H](NC(=O)CNC(=O)[C@H](Cc1ccc(O)cc1)NC(=O)[C@H](CO)NC(=O)[C@H](Cc1c[nH]c2ccccc12)NC(=O)[C@@H](NC(=O)[C@H](CC(=O)O)NC(=O)[C@@H](N)CO)C(C)C)C(C)C)[C@@H](C)O)C(C)C)C(=O)N[C@H](C(=O)O)[C@@H](C)O [Peptide 9019.0089]
